Data published in patent US7119049B2, “Oxathiinecarboxamides” (Bayer Cropscience AG, priority 2002, dated 2006).
Read-outs that look alike come from different tables or passages of the source.

Key:
Alternaria solani = test: Alternaria Test (Tomato)/protective; format: in vivo; settings: 48 h, read-out: Efficacy in %
Protocol: (§1) To produce a suitable preparation of active compound, 1 part by weight of active compound is mixed with the stated amounts of solvent and emulsifier, and the concentrate is diluted with water to the desired concentration.
To test for protective activity, young tomato plants are sprayed with the preparation of active compound at the stated application rate. 1 day after the treatment, the plants are inoculated with an aqueous spore suspension of Alternaria solani. The plants are then placed in an incubation cabin at about 20° C. and 100% relative atmospheric humidity.
Evaluation is carried out 2 days after the inoculation. 0% means an efficacy which corresponds to that of the control, whereas an efficacy of 100% means that no infection is observed.

[1] = logP determination by HPLC (reversed-phase C 18), acidic range; format: physicochemical; settings: pH 2.3, HPLC reversed-phase C 18, 43° C., 0.1% aqueous phosphoric acid/acetonitrile
Protocol: The logP values given in the Preparation Examples were determined in accordance with EEC Directive 79/831 Annex V.A8 by HPLC (High Performance Liquid Chromatography) using a reversed-phase column (C 18). Temperature: 43° C.
Mobile phases for the determination in the acidic range: 0.1% aqueous phosphoric acid, acetonitrile; linear gradients from 10% acetonitrile to 90% acetonitrile.
Calibration was carried out using unbranched alkan-2-ones (having 3 to 16 carbon atoms) with known logP values (determination of the logP values by the retention times using linear interpolation between two successive alkanones).

Podosphaera leucotricha = test: Podosphaera Test (Apple)/protective; format: in vivo; settings: 240 h, read-out: Efficacy in %
Protocol: Podosphaera Test (Apple)/Protective
• Solvents: 24.5 Parts by weight of acetone 24.5 Parts by weight of dimethylacetamide • Emulsifier: 1.0 Part by weight of alkylaryl polyglycol ether
(§2) To produce a suitable preparation of active compound, 1 part by weight of active compound is mixed with the stated amount of solvent and emulsifier, and the concentrate is diluted with water to the desired concentration.
To test for protective activity, young plants are sprayed with the preparation of active compound at the stated application rate. After the spray coating has dried on, the plants are inoculated with an aqueous spore suspension of the apple mildew pathogen Podosphaera leucotricha. The plants are then placed in a greenhouse at about 23° C. and a relative atmospheric humidity of about 70%.
(§3) Evaluation is carried out 10 days after the inoculation. 0% means an efficacy which corresponds to that of the control, whereas an efficacy of 100% means that no infection is observed.

Venturia inaequalis = test: Venturia Test (Apple)/protective; format: in vivo; settings: 240 h, read-out: Efficacy in %
Protocol: as §1
To test for protective activity, young plants are sprayed with the preparation of active compound at the stated application rate. After the spray coating has dried on, the plants are inoculated with an aqueous conidia suspension of the apple scab pathogen Venturia inaequalis and then remain in an incubation cabin at about 20° C. and 100% relative atmospheric humidity for 1 day.
The plants are then placed in a greenhouse at about 21° C. and a relative atmospheric humidity of about 90%.
as §3

Puccinia recondita = test: Puccinia Test (Wheat)/protective; format: in vivo; settings: protective, 500 g/ha, evaluation 10 days after inoculation
Protocol: as §1
(§4) To test for protective activity, young plants are sprayed with the preparation of active compound at the stated application rate. After the spray coating has dried on, the plants are sprayed with a conidia suspension of Puccinia recondita. The plants remain in an incubation cabin at 20° C. and 100% relative atmospheric humidity for 48 hours.
The plants are then placed in a greenhouse at a temperature of about 20° C. and a relative atmospheric humidity of about 80% to promote the development of rust pustules.
as §3

Pyrenophora teres = Pyrenophora teres Test (Barley)/protective; format: in vivo; settings: protective, 500 g/ha, evaluation 7 days after inoculation
Protocol: as §2
as §4, with “Pyrenophora teres.” for “Puccinia recondita.”
The plants are then placed in a greenhouse at temperature of about 20° C. and a relative atmospheric humidity of about 80%.
Evaluation is carried out 7 days after the inoculation. 0% means an efficacy which corresponds to that of the control, whereas an efficacy of 100% means that no infection is observed.

Structure (SMILES) | pest or weed control at 100 g/ha (Alternaria solani; tomato, protective, 100 g/ha, evaluation 2 days after inoculation) | chromatographic logP ([1]; reversed-phase C18 HPLC column) | pest or weed control at 100 g/ha (Podosphaera leucotricha; apple, protective, application rate 100 g/ha, evaluation 10 days after inoculation) | pest or weed control at 100 g/ha (Venturia inaequalis; apple, protective, 100 g/ha, evaluation 10 days after inoculation) | pest or weed control at 100 g/ha (Alternaria solani) | Efficacy in % (Puccinia recondita) | chromatographic logP [1] | pest or weed control at 100 g/ha (Podosphaera leucotricha) | pest or weed control at 100 g/ha (Venturia inaequalis) | Efficacy in % (Pyrenophora teres)
CC1=C(C(=O)Nc2ccccc2-c2ccc(Cl)cc2F)SCCO1 [Example 1, N-(4′-chloro-2′-fluoro-1,1′-biphenyl-2-yl)-2-methyl-5,6-dihydro-1,4-oxathiine-3-carboxamide] | 94% | 3.61 | 99% | 100% |  |  |  |  |  | 
CC1=C(C(=O)Nc2ccccc2-c2ccc(Cl)c(Cl)c2)SCCO1 [Example 6] |  |  |  |  | 100% | 100% | 4.02 | 100% | 100% | 
CC1=C(C(=O)Nc2ccccc2-c2ccc(Cl)cc2Cl)SCCO1 [Example 7] |  |  |  |  | 98% |  |  | 100% | 100% | 
CC1=C(C(=O)Nc2ccccc2-c2ccc(Cl)cc2C)SCCO1 [Example 8] |  |  |  |  | 94% |  | 4.26 | 96% | 99% | 
CC1=C(C(=O)Nc2ccccc2-c2ccc(Cl)c(F)c2)SCCO1 [Example 9] |  |  |  |  | 100% | 100% | 3.67 | 100% | 100% | 95%
CC1=C(C(=O)Nc2ccccc2-c2ccc(F)c(Cl)c2)SCCO1 [Example 10] |  |  |  |  | 94% |  | 3.7 | 93% | 100% | 
CC1=C(C(=O)Nc2ccccc2-c2ccc(F)c(F)c2)SCCO1 [Example 12] |  |  |  |  | 95% |  | 3.38 |  | 100% | 
CC1=C(C(=O)Nc2ccccc2-c2ccc(Cl)c(C(F)(F)F)c2)SCCO1 [Example 13] |  |  |  |  | 94% |  | 4.03 |  | 99% | 
CC1=C(C(=O)Nc2ccccc2-c2ccc(Cl)c(C)c2)SCCO1 [Example 15] |  |  |  |  | 96% |  | 4.17 | 98% | 100% | 
CC1=C(C(=O)Nc2c(F)cccc2-c2ccc(Cl)c(Cl)c2)SCCO1 [Example 16] |  |  |  |  | 95% |  | 3.53 | 90% | 100% | 
CC1=C(C(=O)Nc2ccccc2-c2ccc(Cl)cc2)SCCO1 [Example 17] |  |  |  |  | 93% |  | 3.69 |  | 93% | 100%
CC1=C(C(=O)Nc2ccccc2-c2ccc(C#N)cc2)SCCO1 [Example 19] |  |  |  |  |  |  | 2.74 |  |  | 93%
